Here are results for 2 molecules from US6489334B2, “Method for the crystallization of a tetrahydropyridin derivative and resulting crystalline forms” (Sanofi-Synthelabo, priority 1996, dated 2002).

Data set [1] is described as follows: preclinical animal pharmacology, toxicology and pharmacokinetic studies. It is filed as in vivo, animals.
Data set [2] in a line: Phase I clinical trials on healthy volunteers. It is filed as in vivo.
Data set [3] relates to amyotrophic lateral sclerosis. To be noted: 2 mg/day; cited from earlier work.
For the next data set, the system named is CACO-2 monolayer. It is filed as in vitro ADME. How it is done:
A study concerning the determination of the in vitro absorption of SR 57746 A as a micronized form I/III mixture was carried out using the CACO-2 monolayer model. This test, which is widely used as a predictive intestinal epithelial model for drug absorption (P. Artusson, Crit. Rev. Ther. Drug, 1991, 8: 305-330), made it possible to show significant differences in terms of dissolution and permeability between SR 57746 A as a micronized form I/III mixture and the SR 57746 A obtained according to EP 0 101 381.

In the case of `Cl.FC(F)(F)c1cccc(C2=CCN(CCc3ccc4ccccc4c3)CC2)c1` [SR 57746 A, 1-[2-(2-naphthyl)ethyl]-4-(3-trifluoromethylphenyl)-1,2,3,6-tetrahydropyridine hydrochloride], the “pharmacokinetic studies on animals” value in data set [1] (animals) is “constant and reproducible results”. Further, the “activity and behavior in animal pharmacology and toxicology tests” value in data set [1] (preclinical trials) was “constant activity and behavior”. For the same molecule, in data set [2], the “variability in the pharmacodynamic effects” value is recorded as “high variability” and the “variability in the plasma concentrations” value is “high variability”. The “clinical outcome in amyotrophic lateral sclerosis patients” value in data set [3] is listed as “proved promising”.
Turning to `Cl.FC(F)(F)c1cccc(C2=CCN(CCc3ccc4ccccc4c3)CC2)c1` [1-[2-(2-naphthyl)ethyl]-4-(3-trifluoromethylphenyl)-1,2,3,6-tetrahydropyridine hydrochloride], in the data set on CACO-2 monolayer, the “dissolution and permeability after micronization” value is recorded as “normalized”; the “rates of dissolution and permeability, compared between the two materials” value is “significantly different”.
